Patent publication US20230393140A1, “BINDING ASSAYS INVOLVING A PLURALITY OF SYNTHETIC COMPOUNDS, TARGETS, AND COUNTER TARGETS” (SRI International, priority 2020, published 2023)
pKd: −log10 of the molar value. Numbered stars: 1 amine (or outer) side, 2 acyl side, 3 side chain; on linkers, the order of the positions; unused ones are H or OH. Square brackets hold non-standard residues; d marks the D form. Peptide text beside a SMILES is read from it. * marks the point of attachment. 5FAM = O=C1OC2(c3ccc(O)cc3Oc3cc(O)ccc32)c2ccc(C(=O)*)cc21; NHCH2C6H4(4-CH2CONH2) = NC(=O)Cc1ccc(CN*)cc1; X1 = O=C(Cc1ccc(CN[*:1])cc1)[*:2]

Experiments:
ASGPR = target: T1, ASGPR (Homo sapiens, UniProt P07306); assay: MST binding affinity of resynthesized NNP hits to ASGPR; conditions: read-out: KD of ASGPR hits by MST
T1 construct: purchased R&D Systems, Inc. 4394-AS
T1 sequence (P07306 1-291): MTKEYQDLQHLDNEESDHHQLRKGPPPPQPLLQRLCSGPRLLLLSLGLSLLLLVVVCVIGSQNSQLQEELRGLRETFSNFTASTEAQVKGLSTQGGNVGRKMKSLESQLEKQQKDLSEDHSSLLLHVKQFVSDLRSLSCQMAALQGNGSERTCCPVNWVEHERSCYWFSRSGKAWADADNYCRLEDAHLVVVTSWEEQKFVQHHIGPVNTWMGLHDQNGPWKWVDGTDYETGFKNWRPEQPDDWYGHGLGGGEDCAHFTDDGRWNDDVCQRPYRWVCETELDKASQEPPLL
Description: Hit binding affinity to various targets were determined using Microscale Thermophoresis (MST). MST experiments were performed on a Monolith NT.115pico (NanoTemper Technologies GmbH, Munich, Germany). Measurements were performed at room temperature, in triplicate with incubation periods of 15, 30 and 45 minutes. […] Targets were labeled using Nanotemper Monolith 2nd Generation Protein Labeling Kits. RED-MALEIMIDE (Maleimide-647-dye) labeling kit was used for K-Ras and RED-NHS (NHS-647-dye) labeling kit was used for IL-6, IL-6R, TNFα and ASGPR. The buffer for the ASGPR contained 20 mM HEPES pH 7.4, 150 mM NaCl, 10 mM MgCl2, 2 mM CaCl2, 0.05% Pluronic F-127, and 1 mM DTT; for IL-6 contained 20 mM HEPES pH 7.4, 150 mM KCl, 10 mM MgCl2, and 0.1% Pluronic F-127; for the soluble IL-6 receptor 20 mM HEPES pH 7.4, 150 mM NaCl, 10 mM MgCl2, and 0.05% Tween-20; for K-Ras 20 mM HEPES pH 7.4, 150 mM NaCl, 10 mM MgCl2, 0.05% Tween-20 and 1 mM DTT; for TNFα 10 mM HEPES pH 7.4, 150 mM NaCl, 10 mM MgCl2, 0.05% Polysorbate-20. Triplicate data was analyzed using MO.AffinityAnalysis software (NanoTemper Technologies GmbH).

[1] = tested on: HepG2 cells (high ASGPR expressing); assay: ASGPR uptake assay, flow cytometry, HepG2; format: cell-based, human; conditions: for Internalization compared with positive control GalNAc: HepG2, flow cytometry; for Internalization (cell uptake) in HepG2: fluorescein-labeled compounds, flow cytometry, 2 hours
Description: The HEK293T (human embryonic kidney cells) and human hepatoma HepG2 cells were grown according to the protocols provided by the American Type Culture Collection (ATCC). When cells reached cell were seeded at ˜1.5×10^5 cells/well in 24-well culture plate for the uptake assay. After at least 16 hours of culture to allow cell attach and equilibrate, the compound treatment was set up for the uptake assay.
The fluorescein-labeled NNPs or fluorescein-labeled N-acetylgalactosamine (GalNAc) recognizing ASGRPR were added to wells at indicated concentrations and incubated for 2 hours. Two plates were prepared for each treatment condition, one serving as 4 degrees C. no internalization control that was kept on ice during incubation, while the second plate was incubated at 37 degrees C. to allow for energy dependent internalization. Following the incubation period, all plates were placed on ice and washed three times with ice-cold PBS/3% BSA/2 mM EDTA and then lifted with trypsin. Cells were transferred to a 96-well round bottom plates in FACS buffer. Cells were then analyzed by flow cytometry using LSR-HJ with HTS sampler (BD Biosciences, San Jose, CA, USA). Data (mean fluorescence intensities) and further analyzed using Flowjo software (BD Biosciences, San Jose, CA, USA). The internalized fraction was expressed as the difference between the corresponding 4 degrees C. and 37 degrees C. MFIs as previously described.

[2] = tested on: ASGPR-mediated uptake in HepG2 cells; assay: Competitive uptake assay with asialofetuin in HepG2; format: cell-based, human; conditions: test compound 0.3 μM; for Cellular uptake with 60 μM asialofetuin: 60 μM asialofetuin (200-fold excess); for Cellular uptake after pre-incubation with asialofetuin: asialofetuin 20 μM and 60 μM
Description: For the competitive uptake assay with the natural ligand of ASGPR (asialofetuin), cells were pre-incubated with 20 μM and 60 μM asialofetuin on ice or at 37 degrees C. for 1.5 hours, followed by the treatment with compounds for additional 2 hours before flow cytometric analysis as described above. The reduction of the uptake under asialofetuin competition was expressed by the percentage against the same treatment condition without asialofetuin.

HepG2 cells = assay: Confocal imaging of HepG2 cell uptake; format: cell-based, human
Description: More particularly, FIG. 11B illustrates cell uptake of GalNAc (positive control), two NNP hits (ASGPR-9-4 and ASGPR-9-6) and a non-hit NNP (KRAS-1-14, negative control) in HepG2 (high ASGPR expressing) verses HEK293 (low ASGPR expressing) cells lines. FIG. 11C illustrates competition uptake assay of GalNAc and two NNP hits (ASGPR-9-4 and ASGPR-9-6) in HepG2 cells after preincubation with different concentrations of asialofetuin (a naturally occurring serum protein ASGPR ligand). Decrease in cell uptake with increasing concentrations of asialofetuin indicates blocking of ASGPR-mediated uptake. FIG. 11D illustrates example confocal images 1113, 1115, 1117, 1119 of HepG2 cell uptake (scale: x20 for the images 1113, 1115, 1117 and x40 for the image 1119). FL=fluorescein label; Cell nucleus staining with DAPI (blue). No uptake with the blank sample (DMSO) is seen at 4 degrees C.

Molecule | pKd (ASGPR) | Internalization compared with positive control GalNAc [1] | Internalization (cell uptake) in HepG2 [1] | Cellular uptake with 60 μM asialofetuin [2] | Cellular uptake after pre-incubation with asialofetuin [2] | HepG2 cell uptake, confocal images, 4 degrees C. (HepG2 cells) | HepG2 cell uptake, confocal images, 37 degrees C. (HepG2 cells)
CC(C)C[C@H](NC(=O)CNC(=O)[C@@H](Cc1c[nH]cn1)NC(=O)[C@@H](CCCNC(=N)N)NC(=O)[C@H]1CCCN1C(=O)Cc1ccc(CNC(=O)[C@H](Cc2ccccc2)NC(=O)[C@@H](CO)NC(=O)[C@@H](CCCNC(=N)N)NC(=O)[C@H]2CCCN2C(=O)CNC(=O)Cc2ccc(CNC(=O)[C@H](CC(C)C)NC(=O)[C@@H](CCCNC(=N)N)NC(=O)[C@@H](CCCCN)NC(=O)[C@@H](CCC(=O)O)NC(=O)[C@@H](Cc3ccccc3)NC(=O)Cc3ccc(CNC(=O)[C@H](Cc4ccccc4)NC(=O)[C@@H](CO)NC(=O)[C@@H](CCC(=O)O)NC(=O)[C@H]4CCCN4C(=O)[C@@H](CC(C)C)NC(=O)c4ccc5c(c4)C(=O)OC54c5ccc(O)cc5Oc5cc(O)ccc54)cc3)cc2)cc1)C(=O)NCc1ccc(CC(=O)N[C@H](CCCNC(=N)N)C(=O)N[C@H](Cc2ccccc2)C(=O)N2CCC[C@@H]2C(=O)N[C@@H](C(=O)NCC(=O)NCc2ccc(CC(=O)N[C@H](CC(C)C)C(=O)N3CCC[C@@H]3C(=O)N[C@H](CCCNC(=N)N)C(=O)N[C@@H](C(=O)NCC(=O)NCc3ccc(CC(N)=O)cc3)[C@H](C)O)cc2)C(C)C)cc1 [ASGPR-9-4] (5FAM-[dL][dP][dE][dS]F[X1][dF][dE][dK][dR]L[X1]G[dP][dR][dS]F[X1][dP][dR][dH]GL[X1][dR][dF][dP][dV]G[X1][dL][dP][dR][dT]G-{NHCH2C6H4(4-CH2CONH2)}) | 6.64 | significantly higher than uptake of the positive control GalNAc | significantly higher in HepG2 cells compared to in HEK293 cells | mostly abolished | decreased with increasing concentrations of asialofetuin |  | 
CC(C)C[C@H](NC(=O)[C@@H](CCCNC(=N)N)NC(=O)[C@@H](CCCCN)NC(=O)[C@@H](CCC(=O)O)NC(=O)[C@@H](Cc1ccccc1)NC(=O)Cc1ccc(CNC(=O)[C@H](Cc2ccccc2)NC(=O)[C@@H](CO)NC(=O)[C@@H](CCC(=O)O)NC(=O)[C@H]2CCCN2C(=O)[C@@H](CC(C)C)NC(=O)c2ccc3c(c2)C(=O)OC32c3ccc(O)cc3Oc3cc(O)ccc32)cc1)C(=O)NCc1ccc(CC(=O)NCC(=O)N2CCC[C@@H]2C(=O)N[C@H](CCCNC(=N)N)C(=O)N[C@H](CO)C(=O)N[C@@H](Cc2ccccc2)C(=O)NCc2ccc(CC(=O)N[C@H](Cc3ccc(O)cc3)C(=O)N[C@@H](C(=O)N3CCC[C@@H]3C(=O)N[C@H](CCCNC(=N)N)C(=O)N[C@@H](C)C(=O)NCc3ccc(CC(=O)N[C@H](CCCNC(=N)N)C(=O)N[C@H](Cc4ccccc4)C(=O)N4CCC[C@@H]4C(=O)N[C@@H](C(=O)NCC(=O)NCc4ccc(CC(=O)N[C@H](CC(C)C)C(=O)N5CCC[C@@H]5C(=O)N[C@H](CCCNC(=N)N)C(=O)N[C@@H](C(=O)NCC(=O)NCc5ccc(CC(N)=O)cc5)[C@H](C)O)cc4)C(C)C)cc3)[C@H](C)O)cc2)cc1 [ASGPR-9-6] (5FAM-[dL][dP][dE][dS]F[X1][dF][dE][dK][dR]L[X1]G[dP][dR][dS]F[X1][dY][dT][dP][dR]A[X1][dR][dF][dP][dV]G[X1][dL][dP][dR][dT]G-{NHCH2C6H4(4-CH2CONH2)}) | 7.47 | significantly higher than uptake of the positive control GalNAc | significantly higher in HepG2 cells compared to in HEK293 cells | mostly abolished | decreased with increasing concentrations of asialofetuin | not at 4 °C | intracellular uptake is observed
THA-(GalNAc)3-(OH)9-1,3-propanediamine-fluorescein [reference compound] |  |  |  | mostly abolished | decreased with increasing concentrations of asialofetuin | no uptake | is seen at 37 °C
